Results: patent US5705523A, “Pyridine- and imidazole-derived agents for cardiovascular diseases” (Pfizer Inc., priority 1991, dated 1998)

What was measured:
[1] = target: T1, thromboxane A2 synthetase (Homo sapiens, UniProt P24557); assay: Thromboxane A2 (T×A2) synthetase inhibition (T×B2 production, radioimmunoassay); format: biochemical; conditions: human platelet microsomes, in vitro; read-out: T×A2 synthetase inhibitory activity: IC50
T1 construct: Indomethacin pretreated human platelet microsomes; from tissue; host or cells: human platelets (microsomes)
T1 sequence (P24557 1-533): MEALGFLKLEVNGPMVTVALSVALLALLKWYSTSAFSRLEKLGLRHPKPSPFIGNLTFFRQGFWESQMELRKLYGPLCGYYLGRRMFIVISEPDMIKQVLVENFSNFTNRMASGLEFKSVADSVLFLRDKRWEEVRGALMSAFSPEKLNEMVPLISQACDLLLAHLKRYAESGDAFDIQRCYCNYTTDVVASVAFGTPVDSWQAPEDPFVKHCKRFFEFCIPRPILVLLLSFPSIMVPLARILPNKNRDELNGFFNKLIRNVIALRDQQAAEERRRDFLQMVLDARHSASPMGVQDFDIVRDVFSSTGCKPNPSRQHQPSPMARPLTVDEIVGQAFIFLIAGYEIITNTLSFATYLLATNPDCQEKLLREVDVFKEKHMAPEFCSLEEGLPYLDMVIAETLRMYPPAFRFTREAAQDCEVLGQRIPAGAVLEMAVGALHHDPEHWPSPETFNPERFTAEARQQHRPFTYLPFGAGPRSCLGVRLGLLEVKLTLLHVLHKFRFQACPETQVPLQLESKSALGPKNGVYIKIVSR
Description: Ram seminal vesicle microsomes (Biochemistry, 1971, 10, 2372) are incubated with arachidonic acid (100.0 μM) for 1.0 minute at 22° C. to produce endoperoxide (PGH2). Aliquots of PGH2 are incubated for 30 seconds at 22° C. with pig aorta microsomes (Nature, 1976, 263, 663) and the reaction terminated with five volumes of ethanol. PGI2 production is assessed by measuring its stable breakdown product 6-keto-PGF1α, using a specific radioimmunoassay.
Indomethacin pretreated human platelet microsomes (Science 1976, 193, 163) are incubated for 2 minutes at 0° C. with PGH2 (produced as in 1) and the reaction terminated with 5 volumes of ethanol. T×A2 production is assessed by measuring its stable metabolite T×B2,using a specific radioimmunoassay.
The test compound is pre-incubated with enzyme for 5 minutes, and its ability to inhibit the thromboxane A2 synthetase enzyme is measured as the reduction of T×A2 (T×B2) production.

thromboxane A2 receptor = target: T2, thromboxane A2 receptor (Rattus norvegicus, UniProt P34978); assay: Thromboxane A2 receptor antagonism (U-46619 contraction of rat aortic strips); format: cell-based; conditions: agonist U-46619, in vitro, read-out: T×A2 antagonist activity: pA2 (converted)
T2 construct: Spirally cut rat aortic strips; from tissue; host or cells: rat aorta (spirally cut strips)
T2 sequence (P34978 1-341): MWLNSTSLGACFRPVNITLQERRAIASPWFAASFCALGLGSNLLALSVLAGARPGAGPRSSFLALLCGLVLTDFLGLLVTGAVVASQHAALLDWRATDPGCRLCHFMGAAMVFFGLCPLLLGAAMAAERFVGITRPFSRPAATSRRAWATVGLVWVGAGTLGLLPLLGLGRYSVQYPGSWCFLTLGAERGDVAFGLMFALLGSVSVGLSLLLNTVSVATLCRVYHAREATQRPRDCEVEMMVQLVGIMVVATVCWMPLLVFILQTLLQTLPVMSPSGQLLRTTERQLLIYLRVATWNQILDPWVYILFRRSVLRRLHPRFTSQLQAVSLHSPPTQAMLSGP
Description: Spirally cut rat aortic strips, mounted for isometric tension recording in 20 ml organ baths, are bathed in Krebs-bicarbonate solution at 37° C. Following an incubation period of 2 hours under 1 gram resting tension, the tissues are pre-treated with U-46619 (a thromboxane A2 receptor agonist) for 10 minutes, then washed and the tissues allowed to equilibrate for a further 1 hour. Cumulative doses of U-46619 over the range 1 nM-100 nM are sequentially included in the bathing fluid and increases in the tissue tension noted.
The test compounds are incubated with the tissue for 15 minutes prior to repeating the cumulative dosing of U-46619 and the ability of the compound to antagonize the thromboxane A2 receptor is determined from the dose-response curves for U-46619 in the presence of varied concentrations of the test compound.

PGI2 synthetase = conditions: pre-incubation with pig aorta microsomes; result in words; cited from earlier work

Structure (SMILES) | IC50 [1] [nM] | Kb (thromboxane A2 receptor) [nM] | inhibition of PGI2 production by PGI2 synthetase (PGI2 synthetase)
O=C(O)CCc1cc(CCNS(=O)(=O)c2ccccc2)cc(Oc2cccnc2)c1 [Example 61, 3-[3(2-Phenylsulphonylamino)ethyl-5-(3-pyridyloxy)phenyl]propanoic acid] | 38 | 0.871 | –
O=C(O)CCc1cc(CCNS(=O)(=O)c2ccc(Br)cc2)cc(Cc2cccnc2)c1 [Example 49, 3-{3-[2-(4-Bromophenylsulphonylamino)ethyl]-5-(3-pyridylmethyl)phenyl}propanoic acid] | 49 | 0.363 | –
C=C(c1cccnc1)c1cc(CCNS(=O)(=O)c2ccc(Cl)cc2)cc(CCC(=O)O)c1 [Example 83, 3-{3-[2-(4-Chlorophenylsulphonylamino)ethyl]-5-[1-(3-pyridyl)ethenyl]phenyl}propanoic acid] | 53 | 0.0977 | –
CC(c1cccnc1)c1cc(CCNS(=O)(=O)c2ccccc2)cc(CCC(=O)O)c1 (stereo not shown) [Example 84, 3-{3-(2-Phenylsulphonylamino)ethyl-5-[1-(3-pyridyl)ethyl]phenyl}propanoic acid] | 44 | 0.186 | –
C=C(c1cccnc1)c1cc(CCNS(=O)(=O)c2ccccc2)cc(CCC(=O)O)c1 [Example 82, 3-{3-(2-Phenylsulphonylamino)ethyl-5-[1-(3-pyridyl)ethenyl]phenyl}propanoic acid] | 50 | 0.759 | –
CCCCCC(/C=C/C=C\C/C=C\C/C=C\CCCC(=O)O)OO (stereo not shown) [15-hydroperoxyarachidonic acid] | – | – | completely inhibited
CC(c1cccnc1)c1cc(CCNS(=O)(=O)c2ccc(Cl)cc2)cc(CCC(=O)O)c1 (stereo not shown) [Example 85, 3-{3-[2-(4-Chlorophenylsulphonylamino)ethyl]-5-[1-(3-pyridyl)ethyl]phenyl}propanoic acid] | 38 | 0.0692 | –
O=C(O)CCc1cc(CCNS(=O)(=O)c2ccc(Cl)cc2)cc(Oc2cccnc2)c1 [Example 62, 3-{3-[2-(4-Chlorophenylsulphonylamino)ethyl]-5-(3-pyridyloxy)phenyl}propanoic acid] | 37 | 0.398 | –
CC(O)(c1cccnc1)c1cc(CCNS(=O)(=O)c2ccc(Cl)cc2)cc(CCC(=O)O)c1 (stereo not shown) [Example 67] | 61 | 0.851 | –
O=C(O)CCc1cc(CCNS(=O)(=O)c2ccc(Cl)cc2)cc(Cc2cccnc2)c1 [Example 48, 3-{3-[2-(4-Chlorophenylsulphonylamino)ethyl]-5-(3-pyridylmethyl)phenyl}propanoic acid] | 39 | 0.407 | –
